Measurements as given in patent US20100120715A1, “BETA-LACTAMASE INHIBITORS” (priority 2007, published 2010).
Where two headings read alike, the source gives them in different places.

Columns and labels:
[1] = molecular target: T1, Class A ESBL CTXM-15 (Escherichia coli, UniProt Q9EXV5); experiment: β-lactamase enzyme inhibition (nitrocefin hydrolysis), CTXM-15; type: biochemical; details: purified enzyme; nitrocefin 100 μM, PBS pH 7.0; read-out: CTXM-15 IC50 Range
T1 construct: made in house; host or cells: E. coli BL21(DE3)
T1 sequence (Q9EXV5 entry or part of it): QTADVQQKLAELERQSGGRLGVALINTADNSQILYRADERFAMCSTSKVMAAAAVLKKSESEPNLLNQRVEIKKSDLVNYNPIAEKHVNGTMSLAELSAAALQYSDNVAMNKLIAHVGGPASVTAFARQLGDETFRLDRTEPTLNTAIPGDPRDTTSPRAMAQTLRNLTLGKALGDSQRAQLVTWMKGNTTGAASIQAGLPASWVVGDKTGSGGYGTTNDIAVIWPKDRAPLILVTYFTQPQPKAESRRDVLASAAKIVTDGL
Summary of the method: (§1)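 Native untagged enzymes were expressed in E. coli BL21(DE3) and purified by cation exchange and gel filtration. Compound series (100–0.005 μM in PBS pH 7.0, before addition of an equal enzyme volume) were preincubated with enzyme 10 min at 37°C. Nitrocefin (100 μM final) hydrolysis was read kinetically at 486 nm for 10 min, and IC50 was taken as 50% reduction of initial rate versus no-inhibitor wells.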

[2] = test system: K. pneumoniae expressing the Class A carbapenemase KPC-2; experiment: microbe, parasite or virus in culture; details: in the presence of fixed 8 μg/mL Ceftazidime
[3] = test system: K. pneumoniae expressing the Class A ESBL CTX-M-15; experiment: microbe, parasite or virus in culture; type: cell-based; details: in the presence of fixed 8 μg/mL Ceftazidime
Description: To determine the ability of test compounds to potentiate the inhibition of the growth of bacterial strains producing beta-lactamase enzymes, classic cell based screening assays were employed. Four bacteria strains producing beta-lactamase enzymes were used: K. pneumoniae expressing the Class A Extended Spectrum Beta-Lactamase (ESBL) CTX-M-15, E. coli expressing the Class A ESBL SHV-5, E. cloacae expressing the Class C P99+, and K. pneumoniae expressing the Class A carbapenemase KPC-2. In order to evaluate the ability of test compounds to inhibit beta-lactamase activity, Applicants used a modification of the broth microdilution assay. The assay was conducted in Cation Adjusted Mueller Hinton Broth (CAMHB, BD # 212322, BD Diagnostic Systems, Sparks, Md.). Bacteria strains were grown for 3-5 hours in CAMBH broth. All four strains were grown in presence of 50 μg/mL ampicillin to ensure resistance is maintained. In the meantime, test compounds were diluted in DMSO to a 0.1 mg/mL stock. The compounds were added to a microtiter plate and were diluted in 2-fold serial dilutions in CAMHB in a final concentration range of 8 μg/mL to 0.015 μg/ml. […] […] Each of these compound plates are made in quadruplicate, one for each bacteria strain. In addition to the titration of test compounds the MICs of a panel of cephalosporins is also tested to ensure the strains are behaving consistently from test to test. Once the test compound and cephalosporin are added the plates can be inoculated. Inocula are conducted according to CLSI broth microdilution method. After inoculation the plates are incubated for 16-20 hours at 37° C. then the Minimal Inhibitory Concentration (MIC) of the test compound is determined visually.

[4] = molecular target: T2, Class A carbapenemase KPC-2 (Klebsiella pneumoniae, UniProt Q9F663); experiment: β-lactamase enzyme inhibition (nitrocefin hydrolysis), KPC-2; type: biochemical; details: purified enzyme; nitrocefin 100 μM, PBS pH 7.0; read-out: KPC-2 IC50 Range
T2 construct: made in house; host or cells: E. coli BL21(DE3)
T2 sequence (Q9F663 25-293 limits assumed): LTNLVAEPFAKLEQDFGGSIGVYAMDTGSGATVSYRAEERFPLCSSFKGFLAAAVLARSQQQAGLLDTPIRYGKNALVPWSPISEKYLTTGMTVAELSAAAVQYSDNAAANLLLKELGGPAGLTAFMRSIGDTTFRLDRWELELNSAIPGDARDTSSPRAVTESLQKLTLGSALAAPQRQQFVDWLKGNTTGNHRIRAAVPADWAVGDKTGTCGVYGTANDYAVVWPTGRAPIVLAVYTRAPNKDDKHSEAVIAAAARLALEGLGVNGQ
Summary of the method: as §1

[5] = test system: E. coli expressing the Class A ESBL SHV-5; experiment: microbe, parasite or virus in culture; type: cell-based; details: in the presence of fixed 8 μg/mL Ceftazidime
Description: To determine the ability of test compounds to potentiate the inhibition of the growth of bacterial strains producing beta-lactamase enzymes, classic cell based screening assays were employed. Four bacteria strains producing beta-lactamase enzymes were used: K. pneumoniae expressing the Class A Extended Spectrum Beta-Lactamase (ESBL) CTX-M-15, E. coli expressing the Class A ESBL SHV-5, E. cloacae expressing the Class C P99+, and K. pneumoniae expressing the Class A carbapenemase KPC-2. In order to evaluate the ability of test compounds to inhibit beta-lactamase activity, Applicants used a modification of the broth microdilution assay. The assay was conducted in Cation Adjusted Mueller Hinton Broth (CAMHB, BD # 212322, BD Diagnostic Systems, Sparks, Md.). Bacteria strains were grown for 3-5 hours in CAMBH broth. All four strains were grown in presence of 50 μg/mL ampicillin to ensure resistance is maintained. In the meantime, test compounds were diluted in DMSO to a 0.1 mg/mL stock. The compounds were added to a microtiter plate and were diluted in 2-fold serial dilutions in CAMHB in a final concentration range of 8 μg/mL to 0.015 μg/ml. An overlay of CAMHB containing a cephalosporin was added to the compounds at a final static concentration of 8 μg/ml. […] Each of these compound plates are made in quadruplicate, one for each bacteria strain. In addition to the titration of test compounds the MICs of a panel of cephalosporins is also tested to ensure the strains are behaving consistently from test to test. Once the test compound and cephalosporin are added the plates can be inoculated. Inocula are conducted according to CLSI broth microdilution method. After inoculation the plates are incubated for 16-20 hours at 37° C. then the Minimal Inhibitory Concentration (MIC) of the test compound is determined visually.

[6] = molecular target: T3, Class A ESBL SHV-5 (Klebsiella pneumoniae, UniProt P0A3M1); type: biochemical, E. coli; details: nitrocefin 100 μM, PBS pH 7.0, read-out: SHV-5 IC50 Range
T3 construct: made in house; host or cells: E. coli BL21(DE3) for purified enzyme; E. coli cells containing SHV-5 for extracts
T3 sequence (P0A3M1 22-286): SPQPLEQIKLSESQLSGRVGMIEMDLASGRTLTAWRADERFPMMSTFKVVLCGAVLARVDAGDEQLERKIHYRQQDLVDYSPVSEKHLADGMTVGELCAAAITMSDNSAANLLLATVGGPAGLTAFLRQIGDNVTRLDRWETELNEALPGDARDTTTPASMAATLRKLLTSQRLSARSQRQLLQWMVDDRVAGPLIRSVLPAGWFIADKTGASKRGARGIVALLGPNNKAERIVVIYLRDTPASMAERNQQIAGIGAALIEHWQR

[7] = molecular target: T4, Class C P99 AmpC (Enterobacter cloacae, UniProt P05364); type: biochemical; details: purified enzyme; nitrocefin 100 μM, PBS pH 7.0; read-out: P99 AmpC IC50 Range
T4 construct: made in house; host or cells: E. coli BL21(DE3)
T4 sequence (P05364 21-381): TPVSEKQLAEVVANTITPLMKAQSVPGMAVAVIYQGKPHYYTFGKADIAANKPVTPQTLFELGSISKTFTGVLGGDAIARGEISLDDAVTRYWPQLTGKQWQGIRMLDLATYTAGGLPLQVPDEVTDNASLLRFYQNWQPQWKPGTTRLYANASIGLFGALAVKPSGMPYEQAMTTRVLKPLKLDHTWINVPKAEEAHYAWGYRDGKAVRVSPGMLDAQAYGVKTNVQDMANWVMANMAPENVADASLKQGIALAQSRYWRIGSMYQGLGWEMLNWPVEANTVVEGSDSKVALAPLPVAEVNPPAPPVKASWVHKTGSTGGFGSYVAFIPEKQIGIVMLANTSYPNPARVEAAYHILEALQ
Summary of the method: as §1

[8] = purified beta-lactamase enzyme (Examples 1 and 31-64)

Structure (SMILES)	IC50 [1]	MIC of example compound, K. pneumoniae KPC-2 + 8 μg/mL CAZ [2]	MIC of example compound, K. pneumoniae CTX-M-15 + 8 μg/mL CAZ [3]	IC50 [4]	MIC of example compound, E. coli SHV-5 + 8 μg/mL CAZ [5]	IC50 [6, 8]	IC50 [7]	IC50 ([6]; cellular extracts of E. coli containing SHV-5 (Examples 2-30))
O=C(O)c1cccc(C[C@H](NC(=O)c2c(Cl)cccc2Cl)B(O)O)c1O [Example 43, (1R)-1-(2,6-Dichlorobenzoyl)-amino-1-(3-carboxy-2-hydroxy)benzyl-methylboronic acid]	10 to 100 nM	A (A represents an MIC >8 μg/mL)	A (A represents an MIC >8 μg/mL)	10 to 100 nM	A (A represents an MIC >8 μg/mL)	> 1000 nM	< 10 nM	–
Cc1nc(-c2cccc(C(=O)N[C@@H](Cc3cccc(C(=O)O)c3O)B(O)O)c2)no1 [Example 47, (1R)-1-[3-(5-methyl-[1,2,4]oxadiazol-3-yl)-benzoyl]-amino-1-(3-carboxy-2-hydroxy)benzyl-methylboronic acid]	< 10 nM	–	A (A represents an MIC >8 μg/mL)	< 10 nM	A (A represents an MIC >8 μg/mL)	10 to 100 nM	< 10 nM	–
COc1ccccc1C(=O)N[C@@H](Cc1cccc(C(=O)O)c1O)B(O)O [Example 34, (1R)-1-(2-methoxybenzoylamino)-2-(2-hydroxy-3-carboxyphenyl)ethyl-1-boronic acid]	< 10 nM	C (C represents an MIC of <1 μg/mL)	–	10 to 100 nM	A (A represents an MIC >8 μg/mL)	100 to 1000 nM	< 10 nM	–
O=C(O)c1cccc(C[C@H](NC(=O)[C@@H]2CCCN2)B(O)O)c1O.O=CO [Example 64, (1R),(2′S)-1-(pyrrolidine-2-carbonylamino)-2-(2-hydroxy-3-carboxyphenyl)ethyl-1-boronic acid formate]	100 to 1000 nM	C (C represents an MIC of <1 μg/mL)	A (A represents an MIC >8 μg/mL)	100 to 1000 nM	A (A represents an MIC >8 μg/mL)	> 1000 nM	10 to 100 nM	–
NCCC(=O)N[C@@H](Cc1cccc(C(=O)O)c1O)B(O)O.O=CO [Example 38, (1R)-1-(3-aminopropanoylamino)-2-(2-hydroxy-3-carboxyphenyl)ethyl-1-boronic acid formate salt]	100 to 1000 nM	C (C represents an MIC of <1 μg/mL)	A (A represents an MIC >8 μg/mL)	100 to 1000 nM	A (A represents an MIC >8 μg/mL)	> 1000 nM	100 to 1000 nM	–
O=C(O)COc1cccc(CC(=O)N[C@@H](Cc2cccc(C(=O)O)c2O)B(O)O)c1 [Example 7, (1R)-1-[3-(carboxymethoxy)-phenyl]acetylamino-(3-carboxy-2-hydroxy)benzyl-methylboronic acid]	< 10 nM	C (C represents an MIC of <1 μg/mL)	C (C represents an MIC of <1 μg/mL)	–	C (C represents an MIC of <1 μg/mL)	–	< 10 nM	< 10 nM
O=C(N[C@@H](Cc1cccc(C(=O)O)c1O)B(O)O)c1ccc(N2CCOCC2)nc1 [Example 48, (1R)-1-(6-morpholin-4-yl-pyridine-3-carbonyl)-amino-1-(3-carboxy-2-hydroxy)benzyl-methylboronic acid]	< 10 nM	C (C represents an MIC of <1 μg/mL)	–	< 10 nM	A (A represents an MIC >8 μg/mL)	100 to 1000 nM	10 to 100 nM	–
Cn1nc(-c2ccccc2)cc1C(=O)N[C@@H](Cc1cccc(C(=O)O)c1O)B(O)O [Example 44, (1R)-1-(1-methyl-3-phenyl-1H-pyrazole-5-carbonyl-amino)-2-(2-hydroxy-3-carboxyphenyl)ethyl-1-boronic acid]	< 10 nM	–	A (A represents an MIC >8 μg/mL)	10 to 100 nM	A (A represents an MIC >8 μg/mL)	< 10 nM	< 10 nM	–
O=C(N[C@@H](Cc1cccc(C(=O)O)c1O)B(O)O)c1cncnc1 [Example 60, (1R)-1-(Pyrimidine-5-carbonyl-amino)-2-(2-hydroxyl-3-carboxyphenyl)ethyl-1-boronic acid]	10 to 100 nM	C (C represents an MIC of <1 μg/mL)	C (C represents an MIC of <1 μg/mL)	< 10 nM	–	10 to 100 nM	< 10 nM	–
Cn1ccc(C(=O)N[C@@H](Cc2cccc(C(=O)O)c2O)B(O)O)n1 [Example 53, (1R)-1-(1-Methyl-1H-pyrazole-3-carbonyl-amino)-2-(2-hydroxy-3-carboxyphenyl)ethyl-1-boronic acid]	< 10 nM	C (C represents an MIC of <1 μg/mL)	C (C represents an MIC of <1 μg/mL)	< 10 nM	–	100 to 1000 nM	< 10 nM	–
